US20220409562A1, “Treatment or Prevention of Ischaemic Stroke Reperfusion Injury” (Cambridge Enterprise Limited, priority 2019, published 2022)
Entries after “also recorded” stand apart in the source; their conditions may differ.

Legend:
[1] = test system: ischemia; settings: administered prior to and throughout ischemia; cited from earlier work
[2] = test system: transient middle cerebral artery occlusion (MCAO) in C57Bl6J mice; experiment: Transient middle cerebral artery occlusion (MCAO) model, infarct volume and cerebral blood flow; format: in vivo; settings: given i.v. for 20 minutes starting just prior to reperfusion; 45 min ischemia, 2 h reperfusion; vs saline/vehicle control
From the text: Male C57Bl6J mice, 6-8 weeks old, were anesthetized with 3% isoflurane and anaesthesia was maintained on 1.5-2% isoflurane. A Doppler flowmetry probe (Perimed, Sweden) was attached to the skull to continuously monitor the cerebral blood flow. Left common carotid artery (CCA) and left external carotid artery were exposed and permanently ligated. Left […] was clamped temporarily. Next, an incision was made on CCA and a filament with a silicon tip (0.22 mm in diameter, 2-3 mm in length, Doccol, USA) was inserted and guided forward into internal carotid artery until it reached middle cerebral artery (MCA). The occlusion of MCA was confirmed by seeing at least 70% drop in cerebral blood flow. […]
At the end of reperfusion, mice were sacrificed by cervical dislocation; brain was collected and sliced at 2 mm thicknesses and stained with 2% triphenyltetrazolium chloride in saline at 37 C for 10-15 min. […] The healthy tissue area (red-stained) in both hemispheres was measured using ImageJ. The infarct volume % was calculated by first calculating the volume of healthy tissue in each hemisphere (Σarea of each slice×thickness of slice), then by the formula: ((volume of healthy tissue in uninjured hemisphere −volume of healthy tissue in injured hemisphere) ÷volume of healthy tissue in uninjured hemisphere)×100. […]

[3] = test system: C2Cl2 mouse myoblast cells; experiment: Malonate uptake in vitro (LC-MS of cell extracts); format: in vitro ADME; settings: for malonate concentration within the cell: allowing for a cell volume of 260 mg protein/ml
Protocol: We first explored whether malonate could be taken up by cells in culture. C2Cl2 mouse myoblast cells were plated at 300,000 cells/well and adhered overnight. The next day, cells were treated with either DSM (a—0.25 mM; b—0.25, 1 or 5 mM) or untreated for 0 to 240 min before cooling plates on ice and rapidly washing 4 times with ice-cold PBS and placed on dry ice. Cells were extracted for mass spectrometry with 500 μl extraction buffer (50% methanol, 30% acetonitrile and 20% water) with 1 nmol ^13C-malonate internal standard centrifuged to remove insoluble debris.

[4] = Malonate uptake in vivo (tissue levels after tail vein bolus, LC-MS/MS); set-up: species or system C57/BL6 mice; settings: 160 mg/kg tail vein bolus, 5 min after injection, normoxic mouse
Protocol: To see if this uptake also occurred in vivo, we injected disodium malonate into a normoxic mouse by a bolus in the tail vein and measured the malonate levels in tissues 5 min later. C57/BL6 mice were tail vein injected with DSM (160 mg/kg) before cervical dislocation 5 min after the injection, tissues harvested and clamp frozen in liquid nitrogen. For tissue analysis, tissues were weighed and extracted in 25 μl/mg extraction buffer containing internal standard and homogenised in a Precellys 24 homogeniser. Homogenates were centrifuged to remove insoluble debris. Extracts were analysed by LC-MS/MS and the levels of malonate assessed by interpolation of a malonate standard curve.

Row | SMILES | protective effect [1] | necrotic brain infarct volume [2] | intracellular malonate levels ([3]; 5 mM DSM, after 5 min (FIG. 4b)) [nmol/mg protein] | malonate uptake into cells ([3]; 0.25, 1 or 5 mM, 0 to 240 min (FIG. 4b)) | malonate concentration within the cell ([3]; after 5 min incubated with 250 μM) | malonate concentration within the cell ([3]; after 5 min incubated with 5 mM) | intracellular malonate levels ([3]; incubated with 250 μM disodium malonate (FIG. 4a)) | tissue levels of malonate, brain [4] | tissue levels of malonate, heart [4] | tissue levels of malonate, kidney [4] | tissue levels of malonate, liver [4]
1 | COC(=O)CC(=O)OC [DMM, dimethyl malonate] | protective | no significant difference; also recorded: not effective |  |  |  |  |  |  |  |  | 
2 | O=C([O-])CC(=O)[O-].[Na+].[Na+] [DSM, disodium malonate] |  | decreased | ~2 | both dose and time-dependent | about 50 | ~500 | 0.2-0.4 nmol/mg protein | uptake | significant amounts | particularly high | significant amounts
